Data published in ChEMBL document CHEMBL1201862, “PubChem BioAssay data set” (2004).
The source made the active and inactive calls.

Assays:
[1] = NIH-3T3 fibroblast cytotoxicity, dose response, cytotoxicity control, cell-based, fluorescence, Alamar Blue, secondary assay (AID 2327); format: functional;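 also: NIH-3T3 mouse fibroblasts cultured with fluconazole at 8 µg/mL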
[2] = test system: BJ; test: BJ-TERT fibroblast viability loss – cell-based, RAS-independent, luminescence, dose response (AID 1933); format: functional; conditions: Homo sapiens
[3] = test system: BJ; test: cells; format: functional, cell-based; conditions: Homo sapiens
[4] = fluconazole-exposed Candida albicans growth modulators – fluorescence, retest, confirmation (AID 2467); format: functional, cell-based
[5] = target: Luciferin 4-monooxygenase (Photinus pyralis, UniProt P08659); test: inhibition of purified Photinus pyralis luciferase – biochemical, luminescence, dose response (AID 1891)
[6] = Luminescence Cell-Based Dose Confirmation HTS to Identify Inhibitors of Platelet Dense Granule Release. [Related pubchem assays: 1663 (Primary HTS), 1678 (Summary of Project)]; format: functional
[7] = test system: BJ; test: BJ-TERT-LT-ST fibroblast viability loss – cell-based, RAS-independent, luminescence, dose response (AID 1935); format: functional; conditions: Homo sapiens;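 also: BJ fibroblasts immortalized with TERT plus LT and ST oncogenes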
[8] = DRD fibroblast viability loss – cell-based, non-viral oncogenic, luminescence, dose response (AID 1934); format: functional; conditions: Homo sapiens
[9] = THP-1 cell cytotoxicity, dose response, cytotoxicity control for non-replicating M. tuberculosis project (AID 489025); format: functional
[10] = HepG2 cell cytotoxicity, dose response, cytotoxicity control for non-replicating M. tuberculosis project (AID 489018); format: functional; conditions: Mycobacterium tuberculosis
[11] = Vero E6 cell cytotoxicity, dose response, cytotoxicity control for non-replicating M. tuberculosis project, secondary assay (AID 492998); format: functional, VeroE6; conditions: Vero C1008
[12] = target: Heat shock protein HSP 90-alpha (Homo sapiens, UniProt P07900); format: functional, organism-based
[13] = target: T1, Insulin-degrading enzyme (Homo sapiens, UniProt P14735); test: recombinant IDE activation, cell-free – biochemical, fluorescence polarization, counter-screen for IDE activator project, dose response (AID 588681)
T1 sequence (P14735 whole entry): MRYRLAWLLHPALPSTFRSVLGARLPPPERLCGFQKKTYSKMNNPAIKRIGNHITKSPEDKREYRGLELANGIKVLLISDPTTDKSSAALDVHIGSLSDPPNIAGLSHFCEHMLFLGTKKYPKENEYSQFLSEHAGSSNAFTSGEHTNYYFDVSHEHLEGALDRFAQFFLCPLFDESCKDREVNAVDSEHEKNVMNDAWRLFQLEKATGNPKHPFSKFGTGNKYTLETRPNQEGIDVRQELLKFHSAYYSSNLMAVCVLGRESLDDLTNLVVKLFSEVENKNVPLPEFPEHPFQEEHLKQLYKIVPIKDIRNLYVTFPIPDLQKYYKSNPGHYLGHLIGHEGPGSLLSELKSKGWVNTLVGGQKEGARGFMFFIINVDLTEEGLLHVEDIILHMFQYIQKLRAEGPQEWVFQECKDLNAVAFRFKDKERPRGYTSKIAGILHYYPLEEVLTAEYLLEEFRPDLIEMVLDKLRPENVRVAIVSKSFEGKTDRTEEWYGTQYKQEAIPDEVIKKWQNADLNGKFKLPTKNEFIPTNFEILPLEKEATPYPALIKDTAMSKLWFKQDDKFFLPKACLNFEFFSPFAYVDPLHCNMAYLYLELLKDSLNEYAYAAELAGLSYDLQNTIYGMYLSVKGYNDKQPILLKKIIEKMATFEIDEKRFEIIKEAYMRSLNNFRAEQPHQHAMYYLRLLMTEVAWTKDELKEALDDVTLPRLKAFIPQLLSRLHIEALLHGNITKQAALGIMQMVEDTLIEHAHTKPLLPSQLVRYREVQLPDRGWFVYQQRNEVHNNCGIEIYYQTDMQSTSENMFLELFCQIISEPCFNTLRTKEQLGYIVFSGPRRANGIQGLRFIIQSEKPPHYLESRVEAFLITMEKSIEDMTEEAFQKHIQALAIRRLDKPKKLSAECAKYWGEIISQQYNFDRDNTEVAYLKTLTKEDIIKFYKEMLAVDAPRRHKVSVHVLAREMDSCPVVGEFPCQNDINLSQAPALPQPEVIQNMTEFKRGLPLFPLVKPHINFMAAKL

[14] = target: T1, Insulin-degrading enzyme; test: cellular IDE activation of Abeta substrate cleavage – fluorescence polarization, HEK cells, dose response (AID 588439); format: functional, cell-based
[15] = test system: HEK293; test: membrane integrity loss in HEK cells – cell-based, fluorescence, cytotoxicity control for IDE activator project, dose response (AID 588440); format: functional; conditions: Homo sapiens;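 also: cytotoxicity by LDH release measuring loss of membrane integrity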
[16] = test system: HEK293; test: optical interference in Abeta FP readout, dose response, artefact control for IDE activator project, biochemical, fluorescence polarization (AID 588442); format: functional, cell-based; conditions: Homo sapiens
[17] = target: Paired box protein Pax-8 (Homo sapiens, UniProt Q06710); test: PAX8 transcriptional activity inhibition in RMG-I – RMG-I cells, luciferase, cherry-pick, dose response (AID 687027); format: functional, cell-based;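 also: luciferase reporter driven by Pax8 target thyroperoxidase promoter measured by SteadyGlo luminescence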
[18] = A549 cell cytotoxicity, dose response, cytotoxicity control, plate reader, cherry-pick, antagonist series (AID 743412); format: functional, cell-based
[19] = toxicity toward HepG2 liver cells – cell-based, plate reader, cherry-pick, antagonist series, cytotoxicity control, dose response (AID 743416); format: functional
[20] = blockers of bursicon-stimulated LGR2 cAMP reporter – cell-based, HEK293, CRE-luciferase reporter, cherry pick, set 2, dose response (AID 743343); format: functional;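 also: transfected cells were stimulated with diluted bursicon conditioned medium after compound addition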
[21] = general cell-killing toxicity readout – plate reader, dry powder samples, cytotoxicity control for PAX8 inhibitor project, dose response (AID 743021); format: functional, cell-based
[22] = blockade of melanocortin 4 receptor signaling – cell-based, plate reader, cherry pick, counter-screen for LGR2 antagonist project, dose response (AID 743444); format: functional;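 also: transfected HEK 293 cells stimulated with alpha-MSH peptide; potency of inhibitors of the alpha-MSH evoked signal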
[23] = viability loss in HEK293 cells – cell-based, plate reader, cherry-picked samples, cytotoxicity control, dose response (AID 743446); format: functional
[24] = test system: Vero; test: mammalian cell viability reduction – secondary assay, cytotoxicity control for West Nile virus antiviral project, dose response (AID 1650); format: functional; conditions: Chlorocebus sabaeus
[25] = viability loss in THP-1 monocytes – THP-1 cells, cytotoxicity control for Vif-APOBEC3G degradation inhibitor project, dose response (AID 1117359); format: functional; conditions: THP-1
[26] = Trypanosoma cruzi growth suppression in host cells – NIH3T3 host cells, beta-gal luminescence, confirmation (AID 2044); format: functional, cell-based;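 also: intracellular parasites grown in NIH/3T3 mouse fibroblasts as host cells; luminescent beta-galactosidase reporter signal from transgenic T. cruzi replicating inside host cells; inhibitors lower the luminescence signal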
[27] = NIH3T3 cell viability loss – ATP luminescence, mouse fibroblasts, counter-screen, dose response (AID 2010); format: functional, cell-based;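 also: cells exposed to compound for about 90 hours before reading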
[28] = cells
[29] = target: T2, Fructose-bisphosphate aldolase (Mycobacterium tuberculosis, UniProt P9WQA3); test: Fluorescence-based biochemical high throughput dose response assay for inhibitors of the fructose-bisphosphate aldolase (FBA) of M. tuberculosis.; format: functional
T2 sequence (P9WQA3 whole entry): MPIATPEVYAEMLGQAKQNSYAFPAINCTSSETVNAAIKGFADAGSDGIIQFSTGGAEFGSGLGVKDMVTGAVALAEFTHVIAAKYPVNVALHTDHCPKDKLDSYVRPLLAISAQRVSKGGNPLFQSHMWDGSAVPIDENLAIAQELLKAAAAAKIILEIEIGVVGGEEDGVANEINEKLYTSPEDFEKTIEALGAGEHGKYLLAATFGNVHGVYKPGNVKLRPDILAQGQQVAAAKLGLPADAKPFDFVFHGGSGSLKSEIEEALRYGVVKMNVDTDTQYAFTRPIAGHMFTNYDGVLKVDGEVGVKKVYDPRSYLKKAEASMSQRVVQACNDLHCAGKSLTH

[30] = target: T3, DNA repair and recombination protein RAD54-like (Homo sapiens, UniProt Q92698); test: RAD54 Holliday junction migration blockers – biochemical, fluorescence, cherry-picked samples, dose series, confirmation (AID 651657); format: functional
T3 sequence (Q92698 whole entry): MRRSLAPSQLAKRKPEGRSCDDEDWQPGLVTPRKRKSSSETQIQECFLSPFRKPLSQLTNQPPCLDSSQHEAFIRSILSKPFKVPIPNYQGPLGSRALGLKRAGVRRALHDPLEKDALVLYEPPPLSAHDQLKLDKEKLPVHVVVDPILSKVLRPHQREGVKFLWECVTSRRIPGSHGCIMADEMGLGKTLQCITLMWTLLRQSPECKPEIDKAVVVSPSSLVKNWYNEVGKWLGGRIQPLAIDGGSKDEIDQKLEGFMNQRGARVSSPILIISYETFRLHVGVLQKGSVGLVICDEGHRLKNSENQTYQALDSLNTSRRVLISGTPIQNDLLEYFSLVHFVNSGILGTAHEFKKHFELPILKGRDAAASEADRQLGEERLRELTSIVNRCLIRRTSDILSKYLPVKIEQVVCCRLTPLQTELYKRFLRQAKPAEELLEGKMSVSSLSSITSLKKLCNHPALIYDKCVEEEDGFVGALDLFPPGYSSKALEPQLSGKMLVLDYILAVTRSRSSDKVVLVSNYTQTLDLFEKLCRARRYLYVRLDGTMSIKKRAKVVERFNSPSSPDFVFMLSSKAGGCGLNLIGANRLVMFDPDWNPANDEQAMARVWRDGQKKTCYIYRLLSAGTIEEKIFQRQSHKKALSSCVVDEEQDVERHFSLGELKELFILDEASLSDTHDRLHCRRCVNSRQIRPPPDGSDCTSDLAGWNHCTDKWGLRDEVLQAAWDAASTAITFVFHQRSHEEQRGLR

[31] = target: T4, DNA repair protein RAD52 homolog (Homo sapiens, UniProt P43351); format: functional, biochemical
T4 sequence (P43351 whole entry): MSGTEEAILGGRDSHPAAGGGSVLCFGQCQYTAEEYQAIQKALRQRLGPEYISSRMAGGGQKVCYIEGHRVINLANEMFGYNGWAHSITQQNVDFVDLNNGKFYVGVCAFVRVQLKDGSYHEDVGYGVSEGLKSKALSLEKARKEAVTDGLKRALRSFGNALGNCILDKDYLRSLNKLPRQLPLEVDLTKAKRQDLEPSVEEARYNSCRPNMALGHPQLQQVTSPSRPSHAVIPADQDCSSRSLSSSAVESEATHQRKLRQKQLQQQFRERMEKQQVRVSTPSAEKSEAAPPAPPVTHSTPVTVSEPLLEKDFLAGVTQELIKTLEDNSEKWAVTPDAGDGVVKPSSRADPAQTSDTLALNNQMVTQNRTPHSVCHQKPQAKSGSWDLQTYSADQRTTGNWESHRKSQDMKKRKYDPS

Chain of Paired box protein Pax-8 (Q06710 whole entry): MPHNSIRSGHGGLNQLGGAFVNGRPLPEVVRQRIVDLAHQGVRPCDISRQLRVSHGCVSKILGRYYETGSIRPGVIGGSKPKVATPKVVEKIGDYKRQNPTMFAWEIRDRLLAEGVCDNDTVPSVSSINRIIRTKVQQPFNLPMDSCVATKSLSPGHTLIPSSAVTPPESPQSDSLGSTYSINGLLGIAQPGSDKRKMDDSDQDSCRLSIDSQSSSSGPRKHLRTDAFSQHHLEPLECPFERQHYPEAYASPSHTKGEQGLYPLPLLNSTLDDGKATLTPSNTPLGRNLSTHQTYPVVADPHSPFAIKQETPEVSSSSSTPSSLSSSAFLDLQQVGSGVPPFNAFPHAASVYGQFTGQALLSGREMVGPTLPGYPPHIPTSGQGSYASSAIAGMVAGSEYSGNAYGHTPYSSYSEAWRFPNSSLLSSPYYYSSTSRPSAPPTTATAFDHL
Chain of Luciferin 4-monooxygenase (P08659 whole entry): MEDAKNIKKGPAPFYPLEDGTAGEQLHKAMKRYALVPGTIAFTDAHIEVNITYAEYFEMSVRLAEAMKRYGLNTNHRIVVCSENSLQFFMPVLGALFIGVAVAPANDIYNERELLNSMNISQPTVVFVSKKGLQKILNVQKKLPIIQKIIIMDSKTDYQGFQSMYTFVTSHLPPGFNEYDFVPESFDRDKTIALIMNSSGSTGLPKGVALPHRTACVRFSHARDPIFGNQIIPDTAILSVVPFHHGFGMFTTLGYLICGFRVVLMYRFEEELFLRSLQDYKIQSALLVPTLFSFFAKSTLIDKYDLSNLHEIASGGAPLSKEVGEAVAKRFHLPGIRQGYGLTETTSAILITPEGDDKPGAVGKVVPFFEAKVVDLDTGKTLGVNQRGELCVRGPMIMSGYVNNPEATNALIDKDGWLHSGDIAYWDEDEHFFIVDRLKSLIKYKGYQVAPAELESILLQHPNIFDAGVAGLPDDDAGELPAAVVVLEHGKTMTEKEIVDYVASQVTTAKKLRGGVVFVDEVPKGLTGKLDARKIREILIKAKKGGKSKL

COc1ccc(NC(=O)c2cc([N+](=O)[O-])ccc2O)cc1
EC50 [1]: 11.6 µM (active) | EC50 [2]: 9.48 µM (active) | EC50 [3]: 5.17 µM (active) | EC50 [4]: 1.27 µM (active) | EC50 [5]: 0.129 µM (active) | EC50 [6]: 2.15 µM (active) | EC50 [7]: > 150 µM (inconclusive) | EC50 [8]: 6.2 µM (active) | CC50 [9]: 26.5 µM (active) | CC50 [10]: > 20 µM (active) | CC50 [11]: > 20 µM (active) | AC50 [12]: 3.37 µM (active) | EC50 [13]: > 54.7 µM (inactive) | EC50 [14]: > 54.7 µM (inactive) | IC50 [15]: > 89.1 µM (inactive) | EC50 [16]: > 54.7 µM (inactive) | AC50 [17]: 5.39 µM (active) | AC50 [18]: 11.9 µM (active) | AC50 [19]: 9.22 µM (active) | AC50 [20]: 0.784 µM (active) | AC50 [21]: 12.4 µM (active) | AC50 [22]: 0.739 µM (active) | AC50 [23]: 6.28 µM (active)

COC1CC(OC2CCC3(C)C(CCC4C3CCC3(C)C(C5=CC(=O)OC5)C(OC(C)=O)CC43O)C2)OC(C)C1OC1OC(COC2OC(CO)C(O)C(O)C2O)C(O)C(O)C1O (stereo not given)
CC50 [24]: 4.14 µM (active)

CNc1ccc(Br)cc(C(=O)/C=C/c2cccc(OC)c2OC)c1=O
CC50 [25]: > 40 µM (active)

COc1ccc(CN2CCCC(N3CCN(c4cccc(Cl)c4)CC3)C2)cc1OC (stereo not given)
EC50 [26]: < 0.1 µM (active) | EC50 [27]: > 60 µM (not active) | EC50 [28]: 0.038 µM (active)

Cc1cc2c(SCc3ccccc3Cl)nc(N)nc2nc1C
IC50 [29]: 0.833 µM (active)

COc1ccc(CCNC(=O)c2cc3c(=O)n4ccccc4nc3n(CCCN3CCOCC3)c2=N)cc1OC
AC50 [30]: 31 µM (active) | AC50 [31]: 11.5 µM (active)

COC(=O)CN(c1ccc2c(c1)OCCO2)S(=O)(=O)c1ccccc1
IC50 [29]: > 9.99 µM (inactive)

CC(C)N1C(=O)/C(=C/c2nc3ccccc3c(=O)n2-c2ccccc2)c2ccccc21
CC50 [24]: 27.3 µM (active) | EC50 [26]: 0.997 µM (active)

COc1ccc(-c2cc(-c3ccccc3)c(C#N)c(SCC(=O)O)n2)cc1
IC50 [29]: 1.35 µM (active)
